Laboratory results taken from patent US20060111305A1, “Metabolites of certain [1,4]diazepino[6,7,1-ij]quinoline derivatives and methods of preparation and use thereof” (Wyeth, priority 2004, published 2006).

What was measured:
[1] = Metabolite profiles of DCDQ in human plasma and urine by LC/MS (Table 33); type: in vivo, healthy human subjects; details: human plasma and urine, healthy subjects receiving DCDQ
Procedure: Drug administration and specimen collection were performed in a randomized, double-blinded, placebo-controlled, ascending single dose study of the safety, tolerability, pharmacokinetics, and pharmacodynamics of DCDQ administered orally to healthy subjects and subjects with schizophrenia and schizoaffective disorder. The specimens were stored at approximately −70° C. until analysis for metabolite profiles and for ratios of carbamoyl glucuronide (M6) to DCDQ.
Two subjects with medium and high exposure to DCDQ in the 25 mg multiple ascending dose study were also analyzed by LC/MS for metabolite profiles. The 8 hr plasma samples collected on day 1 and day 14 from subjects 9 and 41 were processed and analyzed as described below. No internal standard was added to the samples analyzed for metabolite profiles.
LC/MS System 1 was used for analysis of plasma and urine samples for metabolite characterization. The HPLC equipment used with this LC/MS System consisted of an Agilent Model 1100 HPLC system (Agilent Technologies, Palo Alto, Calif.) including an autosampler, binary pump and diode array UV detector. The UV detector was set to monitor 210 to 350 nm. The HPLC mobile phase consisted of 10 mM ammonium acetate, pH 4.5 (A) and methanol (B), and was delivered at 0.2 mL/min. The linear mobile phase gradient (HPLC Gradient 1) is shown below. During LC/MS sample analysis, up to 6 min of the initial flow was diverted away from the mass spectrometer prior to evaluation of metabolites.
The mass spectrometer used for metabolite characterization with LC/MS System 1 was a Finnigan LCQ-Deca ion trap mass spectrometer (Thermo Electron, San Jose, Calif.). This mass spectrometer was equipped with an electrospray ionization (ESI) interface and operated in the positive ionization mode. Settings for the LCQ mass spectrometer are listed below.
LC/MS System 2 was used to provide additional MS/MS data for characterization of DCDQ metabolites in urine. The HPLC equipment used with LC/MS System 2 consisted of a Waters model 2695 HPLC system (Waters Corp., Milford, Mass.). It was equipped with a built-in autosampler and a model 996 diode array UV detector. The UV detector was set to monitor 210-400 nm. The HPLC column, mobile phases, flow rate, diversion of flow away from the mass spectrometer and gradient were as described above for LC/MS System 1. The column temperature was 25° C.
The mass spectrometer used for metabolite characterization with LC/MS System 2 was a Micromass Quattro Micro triple quadrupole mass spectrometer (Waters Corp.). This mass spectrometer was equipped with an electrospray interface and operated in the positive ionization mode. Settings for this mass spectrometer are listed below.

[2] = test system: cryopreserved human hepatocytes; experiment: Incubation of [14C]DCDQ with cryopreserved human hepatocytes; type: in vitro ADME; details: 10 or 50 μM DCDQ, 4 hours
Procedure: Vials containing cryopreserved human hepatocytes were thawed in a 37° C. water bath with gentle shaking until the ice was almost melted. The vials were removed from the water bath and gentle shaking continued at room temperature for 30-60 seconds until completely thawed. The hepatocyte suspensions from each vial were immediately transferred to pre-cooled 50 mL beakers on ice. To each beaker, 12 mL of ice-cold hepatocyte suspension media was added dropwise over one minute, with occasional, gentle shaking by hand to prevent the cells from settling. The cell suspensions were transferred to a 15 mL tube and centrifuged at 100 g force for 3 min at 4° C. (Model T21 super centrifuge, Sorvall). The supernatant was discarded and the pellets were re-suspended in 4 mL of ice-cold hepatocyte culture media. The cell suspensions contained approximately 3.1×10^6 viable hepatocytes/mL. The average viability was 76.0% as determined using Trypan Blue exclusion and a hemacytometer.
The cell suspensions were distributed into 12-well plates at 1.0 mL per well. Incubations were performed using pooled hepatocytes from two donors. [^14C]DCDQ in water was added to the hepatocyte suspension at a final concentration of 10 or 50 μM. Incubations were carried out at 37° C. for 4 hours in an incubator supplied with 5% CO2. At the end of the incubation, the reaction was stopped by the addition of 200 μL cold methanol to each well. The content of each well was transferred to a 15 mL centrifuge tube and sonicated for 30 seconds. After vortex mixing with 6 mL methanol and then centrifugation, the supernatant was transferred to a clean tube and evaporated to about 0.5 mL in a TurboVap evaporator. The residue was analyzed by HPLC and LC/MS.
A Waters model 2690 HPLC system (Waters Corp., Milford, Mass.) with a built-in autosampler was used for analysis. […] A variable wavelength UV detector set to monitor 250 nm and Flo-One β Model A525 radioactivity flow detector (Perkin Elmer) with a 250 μL LQTR flow cell were used for data acquisition. […]

[3] = Metabolites of DCDQ generated by liver microsomes and hepatocytes, LC/MS characterization (Table 6); type: in vitro ADME; details: MM mouse, RM rat, DM dog, HM human liver microsomes; HH human hepatocytes
Source text: An Agilent Model 1100 HPLC system (Agilent Technologies, Palo Alto, Calif.) including an autosampler and diode array UV detector was used for LC/MS analysis. The UV detector was set to monitor 200 to 400 nm. For selected LC/MS analysis, radiochromatograms were acquired using a β-Ram model 3 radioactivity flow detector (IN/US Systems Inc., Tampa, Fla.) equipped with a solid scintillant flow cell. Separations were accomplished on a Phenomenex Luna C18(2) column (2×150 mm, 5 μm) under the same conditions as described above.
The mass spectrometer used for metabolite characterization was a Micromass Q-TOF-2 quadrupole time-of-flight hybrid mass spectrometer ([…].). The mass spectrometer was equipped with an electrospray ionization (ESI) interface and operated in the positive ionization mode. Collision energy settings of 5 and 30 eV were used for full MS and MS/MS scans, respectively. Settings for the mass spectrometer are listed below.
Mass spectra were obtained by LC/MS and LC/MS/MS analysis for DCDQ and its metabolites.

Matrix (in which DCDQ / metabolite was characterized by LC/MS) [1]: P, U
metabolite detected in human hepatocyte incubations [2]: observed
Source [3]: MM, RM, DM, HM, HH
Structure (SMILES): C1=NCCN2C[C@@H]3CCC[C@@H]3c3cccc1c32 [Metabolite P3, DCDQ imine]
